Patent US8871753B2, “Macrocyclic compounds and their use as kinase inhibitors” (Incyte Corporation, priority 2008, dated 2014)
Counter-ions that a name gives are not always drawn. Like-named read-outs stand apart in the source and are kept apart here.

Tests used:
Format in all cases: biochemical
[1] = target: T1, human JAK2 (a.a. 828-1132) (Homo sapiens, UniProt O60674); assay: In vitro JAK kinase assay (HTRF, phosphorylation of a biotinylated peptide), JAK2
T1 construct: JAK2 (a.a. 828-1132); His tag (N); made in house; host or cells: insect cells (baculovirus)
T1 sequence (O60674 828-1132): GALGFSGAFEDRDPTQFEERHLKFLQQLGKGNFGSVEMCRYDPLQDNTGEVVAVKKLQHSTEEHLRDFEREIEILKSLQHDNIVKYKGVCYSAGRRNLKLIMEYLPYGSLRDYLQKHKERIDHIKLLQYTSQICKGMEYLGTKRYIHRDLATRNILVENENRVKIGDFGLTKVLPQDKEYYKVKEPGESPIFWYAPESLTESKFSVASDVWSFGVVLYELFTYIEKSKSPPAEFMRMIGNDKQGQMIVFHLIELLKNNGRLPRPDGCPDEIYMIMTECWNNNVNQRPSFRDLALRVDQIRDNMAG
Procedure, shortened: (§1)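 Phosphorylation of a biotinylated peptide by the JAK kinase domain, detected by HTRF with Eu-Py20 and SA-APC. ATP was 90 μM for JAK1, 30 μM for JAK2 and 3 μM for JAK3. Reactions ran 1 h at room temperature and were stopped with EDTA, followed by 40 min antibody binding.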

TYK2 = TYK2 (Homo sapiens, UniProt P29597); assay: TYK2 kinase inhibition (Table A1)
Chain of TYK2 (P29597 whole entry): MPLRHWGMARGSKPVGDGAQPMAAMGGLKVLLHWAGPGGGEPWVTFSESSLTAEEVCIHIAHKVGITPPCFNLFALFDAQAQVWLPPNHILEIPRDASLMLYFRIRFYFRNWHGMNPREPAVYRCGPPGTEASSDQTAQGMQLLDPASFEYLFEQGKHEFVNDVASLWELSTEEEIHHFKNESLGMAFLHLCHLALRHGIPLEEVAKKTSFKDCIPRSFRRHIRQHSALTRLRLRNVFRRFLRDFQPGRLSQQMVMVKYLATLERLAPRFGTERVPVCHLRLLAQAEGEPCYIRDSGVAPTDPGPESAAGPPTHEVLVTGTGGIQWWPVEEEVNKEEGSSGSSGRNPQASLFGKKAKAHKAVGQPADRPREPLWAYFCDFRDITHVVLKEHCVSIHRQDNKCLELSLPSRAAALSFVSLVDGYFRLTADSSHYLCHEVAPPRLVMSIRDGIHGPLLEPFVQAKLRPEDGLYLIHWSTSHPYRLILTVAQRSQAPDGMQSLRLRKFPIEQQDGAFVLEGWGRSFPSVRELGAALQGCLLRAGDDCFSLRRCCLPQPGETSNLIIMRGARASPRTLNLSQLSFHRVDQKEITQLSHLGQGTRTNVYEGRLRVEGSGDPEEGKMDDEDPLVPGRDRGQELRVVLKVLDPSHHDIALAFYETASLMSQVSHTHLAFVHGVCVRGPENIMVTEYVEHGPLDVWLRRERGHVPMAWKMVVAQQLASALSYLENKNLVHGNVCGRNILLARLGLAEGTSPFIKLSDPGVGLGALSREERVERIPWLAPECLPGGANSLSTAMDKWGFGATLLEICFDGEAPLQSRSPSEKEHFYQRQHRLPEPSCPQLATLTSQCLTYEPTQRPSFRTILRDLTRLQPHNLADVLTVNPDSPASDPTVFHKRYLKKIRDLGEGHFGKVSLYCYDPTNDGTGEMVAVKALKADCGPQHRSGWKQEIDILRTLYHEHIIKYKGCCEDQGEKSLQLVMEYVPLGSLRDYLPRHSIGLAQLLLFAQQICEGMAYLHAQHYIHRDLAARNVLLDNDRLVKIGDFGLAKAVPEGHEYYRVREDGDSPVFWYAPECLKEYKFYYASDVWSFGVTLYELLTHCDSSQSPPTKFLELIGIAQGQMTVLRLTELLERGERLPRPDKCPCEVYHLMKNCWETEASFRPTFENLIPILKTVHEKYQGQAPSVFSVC

[2] = target: T2, human JAK1 (a.a. 837-1142) (Homo sapiens, UniProt P23458); assay: In vitro JAK kinase assay (HTRF, phosphorylation of a biotinylated peptide), JAK1; settings: read-out: JAK1 IC50
T2 construct: human JAK1 (a.a. 837-1142); His tag (N); made in house; host or cells: insect cells (baculovirus)
T2 sequence (P23458 849-1154): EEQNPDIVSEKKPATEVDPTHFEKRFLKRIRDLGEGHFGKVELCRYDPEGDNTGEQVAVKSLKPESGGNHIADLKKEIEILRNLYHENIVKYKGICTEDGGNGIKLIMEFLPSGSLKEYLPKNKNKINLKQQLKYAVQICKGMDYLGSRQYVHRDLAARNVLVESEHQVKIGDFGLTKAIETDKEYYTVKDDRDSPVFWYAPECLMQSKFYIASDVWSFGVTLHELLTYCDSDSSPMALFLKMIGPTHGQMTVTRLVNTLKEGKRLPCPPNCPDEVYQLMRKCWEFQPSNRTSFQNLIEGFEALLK
Procedure, shortened: as §1

[3] = target: T3, Recombinant Human Anaplastic Lymphoma Kinase (Homo sapiens, UniProt Q9UM73); assay: ALK HTRF kinase assay
T3 construct: purchased Invitrogen, Carlsbad, Calif
T3 sequence (Q9UM73 19-1620): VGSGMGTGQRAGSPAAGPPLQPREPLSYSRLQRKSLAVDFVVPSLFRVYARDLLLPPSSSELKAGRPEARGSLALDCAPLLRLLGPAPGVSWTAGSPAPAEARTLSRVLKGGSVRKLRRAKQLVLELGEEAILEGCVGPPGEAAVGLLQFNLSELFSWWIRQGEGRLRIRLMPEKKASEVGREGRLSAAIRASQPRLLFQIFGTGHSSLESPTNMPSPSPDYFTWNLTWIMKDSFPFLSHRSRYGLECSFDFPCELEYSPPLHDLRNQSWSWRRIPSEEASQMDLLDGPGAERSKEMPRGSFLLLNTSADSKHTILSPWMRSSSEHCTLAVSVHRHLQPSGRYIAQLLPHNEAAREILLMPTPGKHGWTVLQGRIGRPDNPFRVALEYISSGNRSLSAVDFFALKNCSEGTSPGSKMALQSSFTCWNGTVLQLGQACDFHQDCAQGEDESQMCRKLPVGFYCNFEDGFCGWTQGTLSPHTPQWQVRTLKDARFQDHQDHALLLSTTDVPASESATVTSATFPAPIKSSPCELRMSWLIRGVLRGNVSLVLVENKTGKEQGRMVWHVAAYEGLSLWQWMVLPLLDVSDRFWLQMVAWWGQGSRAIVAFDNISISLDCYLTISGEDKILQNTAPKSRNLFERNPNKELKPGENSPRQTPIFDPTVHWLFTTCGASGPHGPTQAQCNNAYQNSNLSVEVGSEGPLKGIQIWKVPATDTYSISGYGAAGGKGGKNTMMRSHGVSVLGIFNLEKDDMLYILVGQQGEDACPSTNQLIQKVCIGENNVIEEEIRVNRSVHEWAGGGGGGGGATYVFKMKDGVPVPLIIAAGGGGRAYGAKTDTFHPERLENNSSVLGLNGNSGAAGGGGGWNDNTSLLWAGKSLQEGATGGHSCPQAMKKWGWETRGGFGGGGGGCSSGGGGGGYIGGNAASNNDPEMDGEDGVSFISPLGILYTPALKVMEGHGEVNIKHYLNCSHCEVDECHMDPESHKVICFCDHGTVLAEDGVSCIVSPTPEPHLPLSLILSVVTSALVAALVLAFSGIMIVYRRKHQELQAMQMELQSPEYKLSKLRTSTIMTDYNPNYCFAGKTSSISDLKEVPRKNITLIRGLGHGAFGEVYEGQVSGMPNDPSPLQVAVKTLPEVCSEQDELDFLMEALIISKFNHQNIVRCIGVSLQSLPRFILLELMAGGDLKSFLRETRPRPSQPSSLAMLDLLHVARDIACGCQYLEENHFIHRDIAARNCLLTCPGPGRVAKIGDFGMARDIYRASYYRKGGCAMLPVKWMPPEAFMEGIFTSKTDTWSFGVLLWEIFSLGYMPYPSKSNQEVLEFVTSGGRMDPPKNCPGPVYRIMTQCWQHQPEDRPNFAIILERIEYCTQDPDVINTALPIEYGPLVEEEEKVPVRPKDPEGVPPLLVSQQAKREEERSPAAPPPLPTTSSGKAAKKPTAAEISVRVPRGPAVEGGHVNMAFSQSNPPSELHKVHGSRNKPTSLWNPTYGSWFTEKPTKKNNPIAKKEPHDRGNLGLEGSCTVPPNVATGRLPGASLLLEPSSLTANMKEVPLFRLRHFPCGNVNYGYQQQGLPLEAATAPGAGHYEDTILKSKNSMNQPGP
Procedure, shortened: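 TR-FRET read-out (Eu anti-pTyr antibody + streptavidin-APC) of biotin-peptide phosphorylation by recombinant human enzyme; IC50 by sigmoidal fit with top/bottom baselines and Hill slope.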

[4] = target: T4, human JAK3 (a.a. 781-1124) (Homo sapiens, UniProt P52333); assay: In vitro JAK kinase assay (HTRF, phosphorylation of a biotinylated peptide), JAK3
T4 construct: JAK3 (a.a. 781-1124); His tag (N); made in house; host or cells: insect cells (baculovirus)
T4 sequence (P52333 781-1124): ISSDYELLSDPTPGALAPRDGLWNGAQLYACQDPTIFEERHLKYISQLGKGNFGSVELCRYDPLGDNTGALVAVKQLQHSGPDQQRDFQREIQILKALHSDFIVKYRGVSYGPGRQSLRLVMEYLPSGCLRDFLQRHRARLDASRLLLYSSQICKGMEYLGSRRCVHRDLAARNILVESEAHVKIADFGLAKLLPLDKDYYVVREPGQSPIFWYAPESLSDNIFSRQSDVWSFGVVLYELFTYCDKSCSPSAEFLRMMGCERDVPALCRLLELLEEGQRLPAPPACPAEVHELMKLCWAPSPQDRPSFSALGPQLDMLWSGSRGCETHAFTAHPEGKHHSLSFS
Procedure, shortened: as §1

[5] = method AA1 (30 μM ATP) or AA2 (1000 μM ATP), not stated per value
[6] = method AA1 (90 μM ATP) or AA2 (1000 μM ATP), not stated per value
[7] = compound at 500 nM or 1 mM, 90 μM ATP
[8] = method AA1 (3 μM ATP) or AA2 (1000 μM ATP), not stated per value
[9] = Table B1, cells without percent sign

IC50 [1, 5] [nM] | IC50 (TYK2) [nM] | IC50 [2, 6] [nM] | ALK % of inhibition at a concentration of 500 nM or 1 mM [3, 7] [%] | IC50 [4, 8] [nM] | IC50 ([1]; Table B1) [nM] | IC50 (TYK2; Table B1) [nM] | IC50 ([2]; Table B1) [nM] | IC50 ([4]; Table B1) [nM] | Compound | also measured
 |  |  |  |  | 5.3 | 9.7 | 4 | 61 | Cc1ccc(NC(=O)Nc2ccc3cc2CCc2cccc(c2)Nc2ncc(Cl)c(n2)N3)cc1 [Example B92, N-[6-Chloro-2,4,8,22-tetraazatetracyclo[14.3.1.1(3,7).1(9,13)]docosa-1(20),3(22),4,6,9(21),10,12,16,18-nonaen-12-yl]-N′-(4-methylphenyl)urea trifluoroacetate] | IC50 [3, 9]: > 1000 nM
 |  |  |  |  | 130 | > 200 | 70 | > 200 | CN(Cc1ccc2cc1CCc1cncc(c1)Nc1ncc(Cl)c(n1)N2)C(=O)C1CCN(c2ncccn2)CC1 [Example B338, N-{[6-Chloro-2,4,8,18,22-pentaazatetracyclo[14.3.1.1(3,7).1(9,13)]docosa-1(20),3(22),4,6,9(21),10,12,16,18-nonaen-12-yl]methyl}-N-methyl-1-pyrimidin-2-ylpiperidine-4-carboxamide tris(trifluoroacetate)] | ALK % of inhibition at a concentration of 500 nM or 1 mM ([3]; percentage inhibition of the example compound at a concentration of 500 nM or 1 mM (not specified which)): 21%
 | 353 |  |  |  |  |  |  |  | O=S1(=O)Cc2cccc(c2)Nc2ncc(Cl)c(n2)Nc2cccc(c2)N1 [Example C9, 6-Chloro-15-thia-2,4,8,14,23-pentaazatetracyclo[15.3.1.1(3,7).1(9,13)]tricosa-1(21),3(23),4,6,9(22),10,12,17,19-nonaene 15,15-dioxide trifluoroacetate] | IC50 [1]: 93 nM; IC50 [2]: 144 nM; IC50 [3]: > 1000 nM; IC50 [4]: 412 nM
 |  |  |  |  | 11 | 26 | 4 | 72 | Cn1ccc(C(=O)N2CC[C@H](NC(=O)Nc3ccc4cc3CCc3cccc(c3)Nc3ncc(Cl)c(n3)N4)C2)n1 [Example B232, N-[6-Chloro-2,4,8,22-tetraazatetracyclo[14.3.1.1(3,7).1(9,13)]docosa-1(20),3(22),4,6,9(21),10,12,16,18-nonaen-12-yl]-N′-{(3S)-1-[(1-methyl-1H-pyrazol-3-yl)carbonyl]pyrrolidin-3-yl}urea bis(trifluoroacetate)] | ALK % of inhibition at a concentration of 500 nM or 1 mM ([3]; compound at a concentration of 500 nM or 1 mM (not specified), cells shown as percentage): 10%
 |  |  |  |  | 0.2 | 0.89 | 0.51 | 1.3 | CS(=O)(=O)Nc1ccc2cc1CCc1cccc(c1)Nc1ncc(Cl)c(n1)N2 [Example B140, N-[6-Chloro-2,4,8,22-tetraazatetracyclo[14.3.1.1(3,7).1(9,13)]docosa-1(20), 3(22),4,6,9(21),10,12,16,18-nonaen-12-yl]methanesulfonamide trifluoroacetate] | IC50 [3, 9]: 150 nM

Further lines, the compound ahead of its results:

Compound | IC50 [1, 5] [nM] | IC50 (TYK2) [nM] | IC50 [2, 6] [nM] | ALK % of inhibition at a concentration of 500 nM or 1 mM [3, 7] [%] | IC50 [4, 8] [nM] | IC50 ([1]; Table B1) [nM] | IC50 (TYK2; Table B1) [nM] | IC50 ([2]; Table B1) [nM] | IC50 ([4]; Table B1) [nM] | also measured
O=C(CC1CCN(C(=O)Nc2ccccc2)CC1)Nc1ccc2cc1CCc1cccc(c1)Nc1ncc(Cl)c(n1)N2 [Example A58, 4-(2-{[6-Chloro-2,4,8,22-tetraazatetracyclo[14.3.1.1(3,7).1(9,13)]docosa-1(20),3(22),4,6,9(21),10,12,16,18-nonaen-12-yl]amino}-2-oxoethyl)-N-phenylpiperidine-1-carboxamide trifluoroacetate] | 1.1 | 9.9 | 0.2 | 38 | 22 |  |  |  |  | 
CCNC(=O)N1CCCC(C(=O)Nc2ccc3cc2CCc2cccc(c2)Nc2ncc(Cl)c(n2)N3)C1 (centres unmarked) [Example A49, N(3)-[6-Chloro-2,4,8,22-tetraazatetracyclo[14.3.1.1(3,7).1(9,13)]docosa-1(20),3(22),4,6,9(21),10,12,16,18-nonaen-12-yl]-N(1)-ethylpiperidine-1,3-dicarboxamide trifluoroacetate] | 7.5 | 39 | 14 | 24 | 11 |  |  |  |  | 
CCNC(=O)N1CCC(CC(=O)Nc2ccc3cc2CCc2cccc(c2)Nc2ncc(Cl)c(n2)N3)CC1 [Example A57, 4-(2-{[6-Chloro-2,4,8,22-tetraazatetracyclo[14.3.1.1(3,7).1(9,13)]docosa-1(20),3(22),4,6,9(21),10,12,16,18-nonaen-12-yl]amino}-2-oxoethyl)-N-ethylpiperidine-1-carboxamide trifluoroacetate] | 7.3 | 8.8 | 5.5 | 24 | 60 |  |  |  |  | 
Cc1nc(S(=O)(=O)N2CCC(CC(=O)Nc3ccc4cc3CCc3cncc(c3)Nc3ncc(Cl)c(n3)N4)CC2)cn1C [Example A230, N-[6-Chloro-2,4,8,18,22-pentaazatetracyclo[14.3.1.1(3,7).1(9,13)]docosa-1(20),3(22),4,6,9(21),10,12,16,18-nonaen-12-yl]-2-{1-[(1,2-dimethyl-1H-imidazol-4-yl)sulfonyl]piperidin-4-yl}acetamide bis(trifluoroacetate)] | 130 | 255 | 15 | 50 | > 400 |  |  |  |  | 
Cc1nccc(N2CCC(CC(=O)Nc3ccc4cc3CCc3cncc(c3)Nc3ncc(Cl)c(n3)N4)CC2)n1 [Example A182, N-[6-Chloro-2,4,8,18,22-pentaazatetracyclo[14.3.1.1(3,7).1(9,13)]docosa-1(20),3(22),4,6,9(21),10,12,16,18-nonaen-12-yl]-2-[1-(2-methylpyrimidin-4-yl)piperidin-4-yl]acetamide tris(trifluoroacetate)] | > 200 | > 200 | 48 | 32 | > 200 |  |  |  |  | 
O=C(CC1CCN(C(=O)NC2CCCC2)CC1)Nc1ccc2cc1CCc1cccc(c1)Nc1ncc(Cl)c(n1)N2 [Example A64, 4-(2-{[6-Chloro-2,4,8,22-tetraazatetracyclo[14.3.1.1(3,7).1(9,13)]docosa-1(20),3(22),4,6,9(21),10,12,16,18-nonaen-12-yl]amino}-2-oxoethyl)-N-cyclopentylpiperidine-1-carboxamide trifluoroacetate] | 6.5 | 23 | 13 | 23 | 30 |  |  |  |  | 
O=C(CC1CCN(S(=O)(=O)c2ccccc2)CC1)Nc1ccc2cc1CCc1cncc(c1)Nc1ncc(Cl)c(n1)N2 [Example A195, N-[6-Chloro-2,4,8,18,22-pentaazatetracyclo[14.3.1.1(3,7).1(9,13)]docosa-1(20),3(22),4,6,9(21),10,12,16,18-nonaen-12-yl]-2-[1-(phenylsulfonyl)piperidin-4-yl]acetamide bis(trifluoroacetate)] | 80 | 140 | 7.1 | 35 | > 200 |  |  |  |  | 
Cc1cc(C(=O)N2CCC(CCC(=O)Nc3ccc4cc3CCc3cncc(c3)Nc3ncc(Cl)c(n3)N4)CC2)no1 [Example A125, N-[6-Chloro-2,4,8,18,22-pentaazatetracyclo[14.3.1.1(3,7).1(9,13)]docosa-1(20),3(22),4,6,9(21),10,12,16,18-nonaen-12-yl]-3-{1-[(5-methylisoxazol-3-yl)carbonyl]piperidin-4-yl}propanamide bis(trifluoroacetate)] | 4.9 | 5.3 | 1.7 | 25 | 90 |  |  |  |  | 
